We go through 6 compounds from patent US20230147021A1, “POLYSULFIDE STABILIZATION” (University Public Corporation Osaka, priority 2020, published 2023).

Series [1] is described as follows: reactivity with hydrogen sulfide (Na2S), adducts by LC-ESI-MS/MS. It is filed as physicochemical. Particulars: 0.1 mM or 1 mM agent, 0.1 mM Na2S, one hour at 37° C.; FIG. 12. As to the method: The incubation of 0.1 mM or 1 mM TME-IAM (right side in FIG. 12) or MBB (left side in FIG. 12) was performed for one hour at 37° C. under the existence of 0.1 mM Na2S. As a result, the HS-adduct and the bis-S-adduct in the reaction mixture were respectively detected by the LC-ESI-MS/MS analysis.
The reaction mixture was separated by the Alliance e2695 system equipped with a YMC-Triart C18 column (inside diameter. 50×2.0 mm) and was then eluted with a linear gradient (30-99% for 5 minutes) by using methanol as a mobile phase under the existence of 0.1% FA (formic acid) at a flow speed of 0.3 mL/min at 40° C.

The conditions of series [2]: 37° C., neutral pH (pH 7.0); stated as known; cited from earlier work.
Series [3] in a line: reactivity of alkylating agents with cysteine (LC-MS/MS of residual cysteine and cysteine adducts). It is filed as physicochemical. Particulars: 1 mM alkylating agent, 0.1 mM cysteine, phosphate buffer pH 7.5, 37° C., 1, 3 and 8 hours; FIG. 5. As to the method: Next, the reactivity between the tyrosine derivative according to the present invention and the active sulfur species was examined.
The following were mixed: 50 μL of 200 mM phosphate buffer (pH 7.5) (final concentration: 50 mM), 2 μL of 100 mM alkylating agent (TME-IAM, TEE-IAM, NAT-IAM, HPE-IAM) or DMSO (final concentration: 1 mM), 2 μL of 10 mM cysteine (final concentration: 0.1 mM), and 146 μL of ultrapure water, and the mixture was incubated at 37° C. while shielding light. One, 3, and 8 hours after the start of the reaction, 10 μL of the reaction solution and 90 μL of 0.1% formic acid were mixed, thereby terminating the reaction. By performing the LC-MS/MS by using unreacted 10 μM cysteine as standard, a residual amount of the cysteine in the reaction solution was analyzed and the generation of cysteine adducts by various kinds of alkylating agents was analyzed.

Series [4] in a line: stabilization test for active sulfur molecules (residual GS-SS-SG by LC-MS/MS). Particulars: 1 mM alkylating agent, 10 μM GS-SS-SG, pH 7.0, 37° C., FIG. 6; for active sulfur molecules stabilization (inhibition of GS-SS-SG autolysis): up to 4 hours. It is filed as physicochemical. As to the method: Next, the stabilization effect of active sulfur molecules of each alkylating agent containing the new tyrosine derivative was evaluated. Oxidized glutathione tetrasulfide (GS-SS-SG) was used as a model compound for the active sulfur molecules.
The following were mixed: 50 μL of 200 mM phosphate buffer (pH 7.0) (final concentration: 100 mM), 5 μL of 20 mM alkylating agent (TME-IAM, HPE-IAM, MBB, IAM) or DMSO (final concentration: 1 mM), 10 μL of 100 μM GS-SS-SG (final concentration: 10 μM), and 35 μL of ultrapure water; and the mixture was incubated at 37° C. while shielding light. One, 2, 3, and 4 hours after the start of the reaction, 10 μL of the reaction solution and 90 μL of 0.1% formic acid were mixed, thereby terminating the reaction. By performing the LC-MS/MS by using unreacted 1 μM GS-SS-SG as standard, a residual amount of the GS-SS-SG in the reaction solution was analyzed.

Series [5] is described as follows: pH influence test for the GS-SS-SG protection effect. It is filed as physicochemical. Particulars: one hour, FIG. 7. As to the method:
Next, the pH influence of the GS-SS-SG protection effect of TME-IAM was evaluated. It has been clarified that the active sulfur molecules GS-SS-SG are stable under acid conditions, while they are very unstable under alkali conditions.
The following were mixed: 50 μL of 200 mM phosphate buffer (pH 7.0, 7.5, 8.0) (final concentration: 100 mM) and 5 μL of 20 mM TME-IAM solution (final concentration: 1 mM), 10 μL of 100 μM GS-SS-SG (final concentration: 10 μM), and 35 μL of ultrapure water; and the mixture was incubated at 37° C. while shielding light. One hour after the start of the reaction, 10 μL of the reaction solution and 90 μL of 0.1% formic acid were mixed, thereby terminating the reaction. By performing the LC-MS/MS analysis by using unreacted 1 μM GS-SS-SG as standard, a residual amount of GS-SS-SG in the reaction solution was analyzed.

The nature of series [6]: reaction mole ratio (processing concentration) influence test for the GS-SS-SG protection effect. Particulars: 400-fold higher concentration than GS-SS-SG (10 μM), pH 7.0, 37° C., one hour; FIG. 8. It is filed as physicochemical. As to the method: In order to detect the active sulfur molecules with high sensitivity, it is important to form a stable derivative. In order to do so, it is necessary to add a high-concentration alkylating agent to a specimen; and it is known that the addition of the high-concentration alkylating agent promotes the decomposition of the active sulfur molecules (NPL 1). So, processing concentration dependency of the active sulfur molecules stabilization activity of TME-IAM was analyzed by using the active sulfur molecules GS-SS-SG.
The following were mixed: 50 μL of 200 mM phosphate buffer (pH 7.0) (final concentration: 100 mM) and 5-20 μL of a TME-IAM solution (final concentration: 0.25, 0.5, 1, 2, 4 mM), 10 μL of 100 μM GS-SS-SG (final concentration: 10 μM), and 20-35 μL of ultrapure water; and the mixture was incubated at 37° C. while shielding light. One hour after the start of the reaction, 10 μL of the reaction solution and 90 μL of 0.1% formic acid were mixed, thereby terminating the reaction. By performing the LC-MS/MS analysis by using unreacted 1 μM GS-SS-SG as standard, a residual amount of GS-SS-SG in the reaction solution was analyzed.

A short description of series [7]: stabilization of oxidized glutathione polysulfides with different numbers of sulfur atoms. It is filed as physicochemical. Particulars: 1 mM TME-IAM, 10 μM GS-SSS-SG, pH 7.0, 37° C., 30 minutes after the processing; FIG. 9. As to the method:
It has been made clear that compounds with different quantities of sulfur atoms included in the molecules exist in the active sulfur molecules. In general, the compound including a larger number of sulfur atoms has higher reactivity and has unstable molecules. So, the active sulfur molecules stabilization effect of TME-IAM was analyzed by using the active sulfur molecules with different quantities of the contained sulfur atoms. For this analysis, oxidized glutathione pentasulfide (GS-SSS-SG) and oxidized glutathione trisulfide (GS-S-SG) were used in addition to GS-SS-SG.
The following were mixed: 50 μL of 200 mM phosphate buffer (pH 7.0) (final concentration: 100 mM) and 5 μL of […] TME-IAM solution (final concentration: 1 mM), 10 μL of 100 μM oxidized form glutathione polysulfide (GS-SSS-SG, GS-SS-SG, GS-S-SG) (final concentration: 10 μM), and 35 μL of ultrapure water; and the mixture was incubated at 37° C. while shielding light. […] By performing the LC-MS/MS analysis by using each unreacted 1 μM oxidized form glutathione polysulfide (GS-SSS-SG, GS-SS-SG, GS-S-SG) as standard, a residual amount of the oxidized form glutathione polysulfide GS-SSS-SG, GS-SS-SG, GS-S-SG) in the reaction solution was analyzed.

The nature of series [8]: reactivity with cysteine hydropolysulfide, adducts by LC-ESI-MS/MS. It is filed as physicochemical. Particulars: 1 mM agent, one hour at 37° C., CysS-(S)n—H from 100 μM cystine and 300 μM Na2S2; FIG. 10. As to the method:
The reactivity of TME-IAM with respect to cysteine hydropolysulfide [CysS-(S)n—H] was verified as compared to HPE-IAM as indicated below.
CysSSH/CysS-(S)n—H which was prepared by incubating 100 μM cystine and 300 μM Na2S2 for 5 minutes at 37° C. was made to react with TME-IAM or HPE-IAM (1 mM each) for one hour at 37° C.
Next, its reaction mixture was provided to the LC-ESI-MS/MS analysis and respective adducts for CysSH/CysS-(S)n—H and HS^− (bis-S-adduct) were detected.
Incidentally, the concentration of each compound as sulfur is calculated according to the following formula: a concentration as sulfur=a concentration as the compound×the number of sulfur atoms in the compound (for example, in a case of CysSSH, the concentration as sulfur=2×[CysSSH]). Referring to FIG. 10, the concentrations of each adduct as the compound and sulfur are indicated as a bar with slanted stripes and a bar without stripes, respectively.

Series [9] deals with HEK (human embryonic kidney) 293T cells. The series can be described thus: cell permeability and esterase sensitivity in HEK 293T cells. It is filed as cell-based. Particulars: 1 mM TME-IAM, one hour at 37° C., FIG. 11A. As to the method: (§1) The following test was conducted with regard to cell permeability and esterase sensitivity of TME-IAM. FIG. 11 illustrates representative mass chromatographs of (A) HEK (human embryonic kidney) 293T cells and (B) mice liver homogenate which were processed with TME-IAM.
(§2) After processing the HEK 293T cells for one hour at 37° C. by using 1 mM TME-IAM, they were homogenized by ultrasonication in 80% methanol. The mice liver tissues were also homogenized by ultrasonication in 80% methanol containing 1 mM TME-IAM and were incubated for one hour at 37° C. After centrifugal separation of each of them, the obtained supernatant was collected and then diluted to 10 times by using 0.1% FA (formic acid).
(§3) Next, the mixture was made to undergo the LC-ESI-MS/MS analysis and individual by-products driving from TME-IAM, its glutathione adduct (GS-AM-TME), and esterase dependency cleavage were detected. They are Tyr-IAM ((2-iodoacetyl)-I-tyrosine) and GS-AM-Tyr (GSH adduct of (2-iodoacetyl)-1-tyrosine), respectively.

Series [10] can be described thus: esterase-dependent by-product formation in mice liver homogenate in 80% methanol. It is filed as in vitro ADME. Particulars: mice liver tissues homogenized in 80% methanol containing 1 mM TME-IAM, one hour at 37° C.; FIG. 11B. As to the method: as §1, §2, §3
Accordingly, in order to evaluate the possibility of forming these derivatives when in vivo samples are used for the reactivity sulfur metabolome analysis, mice liver tissues were prepared in 80% methanol containing 1 mM TME-IAM, homogenized, and incubated for one hour at 37° C., and the obtained samples were analyzed by LC-ESI-MS/MS.

The nature of series [11]: GS-SS-SG protection effect of N-iodoacetyl tyrosine. It is filed as physicochemical. Particulars: compared with TME-IAM; FIG. 13. The source says:
Incidentally, N-iodoacetyl tyrosine is expressed with the following chemical formula.

In the case of `Cc1c(C)n2c(CBr)c(C)c(=O)n2c1=O` [MBB, monobromobimane, reference compound], in [1], the “reactivity with hydrogen sulfide” value was “react with hydrogen sulfide and form the bis-S-adduct”. The “effect on decomposition of GS-SS-SG” value in [2] is listed as “decomposition is promoted”.

For the compound `CCOC(=O)C(Cc1ccc(O)cc1)NC(=O)CI` (stereo not drawn) [TEE-IAM], in [3], the “reactivity with the thiol group (cysteine)” value (from here on “reactivity … (cysteine)”) is “lower reactivity with cysteine than that of TME-IAM and HPE-IAM”.

Take `COC(=O)[C@H](Cc1ccc(O)cc1)NC(=O)CI` [TME-IAM, N-iodoacetyl tyrosine methyl ester]: the “reactivity … (cysteine)” value in series [3] was “same level of reactivity with the thiol group (cysteine) as that of HPE-IAM”. For the same compound, the GS-SS-SG remained entry in series [4] (incubation for 4 hours) is “approximately 80%”; in series [5] (1 mM TME-IAM, 10 μM GS-SS-SG, weakly alkaline solution (pH 8.0), 37° C.), “approximately 70%”. For the same compound, in series [4], the “active sulfur molecules stabilization (inhibition of GS-SS-SG autolysis)” value is given as “high active sulfur molecules stabilization activity”. Further, in series [5] (pH 8.0, 37° C.), the “GS-SS-SG remaining compared with HPE-IAM” value is given as “higher value than that of the system to which the publicly known iodoacetamide derivative HPE-IAM was added”. Also, the “reduction of GS-SS-SG at high alkylating agent concentration” value in series [6] was “any significant reduction of GSSSSG was not observed”. Further, the “decomposition suppression of GS-SSS-SG” value in series [7] was “predominant decomposition suppression”. Moreover, the “amounts of CysSSH and CysSSSH detected” value in series [8] was “significantly larger than those detected by using HPE-IAM”. For the same compound, the cell permeability entry in series [9] was “can permeate through cell membranes”. Further, the “esterase-dependent by-product Tyr-IAM in samples” value in series [10] is “rarely detected”. Moreover, in [1], the “reactivity with hydrogen sulfide” value is “react with hydrogen sulfide and form the bis-S-adduct”.

`O=C(CI)NCCc1ccc(O)cc1` [HPE-IAM, f-(4-hydroxyphenyl) ethyl iodoacetamide, reference compound]: the “active sulfur molecules stabilization (inhibition of GS-SS-SG autolysis)” value in [4] was “inhibited significantly”. For the same compound, in [8], the “amount of HS− (bis-S adduct) decomposition product” value is recorded as “prominently higher than the amount of the product detected by using TME-IAM”.

Take `O=C(CI)N[C@@H](Cc1ccc(O)cc1)C(=O)O` [N-iodoacetyl tyrosine]: the GS-SS-SG protection effect result in series [11] is given as “same level of the GS-SS-SG protection effect as that of TME-IAM”.

In the case of `CC(=O)NC(Cc1ccc(O)cc1)C(=O)NC(=O)CI` (stereo not drawn) [NAT-IAM], in series [3], the “reactivity … (cysteine)” value was “lower reactivity with cysteine than that of TME-IAM and HPE-IAM”.
